Reference: patent US7977372B2, “Ortho aminoamides for the treatment of cancer” (Hoffmann-La Roche Inc., priority 2009, dated 2011)

How the values were obtained:
[1] = tested on: histone deacetylase (HeLa nuclear extract); test: HeLa extract HDAC fluorometric assay; assay type: biochemical; conditions: compound at 30 micromolar; relative to SNDX-275
Protocol: Novel compounds were tested for their ability to inhibit histone deacetylase using an in vitro deacetylation assay. The enzyme source for this assay was HeLa nuclear extract. The substrate consisted of a commercial product containing an acetylated lysine side chain (both HeLa extract and substrate are available commercially from BIOMOL Research Laboratories, Inc., Plymouth Meeting, Pa.). After deacetylation of the substrate by incubation with HeLa nuclear extract, subsequent exposure to a developing reagent produces a fluorophore that is directly proportional to the level of deacetylation. Using the substrate concentration at the Km for the HeLa nuclear extract, the deacetylation assay was performed in the presence of novel compounds at 30 micromolar and the percent enzyme inhibition relative to a known reference HDAC inhibitor (SNDX-275) was determined. […] Inhibitory activity for specific representative compounds can be found in Table 19.

[2] = tested on: SMMC-7721 liver cancer cells; test: Growth inhibition of cancer cell lines (MTS / WST assay), SMMC-7721; assay type: cell-based; conditions: for IC90: read-out: SMMC GI90
Protocol: (§1) The novel compounds of the present invention were tested for their ability to inhibit growth of various cancer cell lines using in vitro growth inhibition assays described below.
(§2) Cells were seeded in 96-well culture plates (200 microliters/well at different seeding concentrations depending on cell type) and incubated overnight at 37 degrees Celsius in 5% CO2. After adding compound dilutions to the cells (DMSO concentration kept below 0.5%), the cells were incubated at 37 degrees Celsius in 5% CO2 for 72 hours. The effects on proliferation were determined by addition of MTS reagent (Promega) according to the manufacturer's instruction, followed by incubation for 2 hours at 37 degrees Celsius in 5% CO2, and finally recording the absorbance at 490 nm using an ELISA plate reader.
(§3) Similar to MTS assay except that the developer is the CCK-8 reagent (Dojindo) and the plate reader is set to 450 nm absorbance.
(§4) GI50 and GI90 values against SGC-7901 gastric cancer cells and SMMC-7721 liver cancer cells for specific representative compounds can be found in Table 19.

[3] = tested on: SGC-7901 gastric cancer cells; test: Growth inhibition of cancer cell lines (MTS / WST assay), SGC-7901; assay type: cell-based; conditions: for IC90: read-out: SGC GI90
Protocol: as §1, §2, §3, §4

SMILES | HD RP30 (relative inhibitory potency compared with SNDX-275) [1] | GI50 ([2]; Homo sapiens, SMMC-7721, 72 h) [nM] | IC90 ([2]; Homo sapiens, SMMC-7721, 72 h) [nM] | GI50 ([3]; Homo sapiens, SGC-7901, 72 h) [nM] | IC90 ([3]; Homo sapiens, SGC-7901, 72 h) [nM] | GI50 ([2]; 72 hours) [nM] | SMMC GI90 ([2]; 72 hours) [nM] | GI50 ([3]; 72 hours) [nM] | SGC GI90 ([3]; 72 hours) [nM]
CN1CC(C(=O)Nc2ccc(F)cc2)C(c2ccc(/C=C/C(=O)Nc3ccccc3N)cc2)C1 (racemic) [Example 5, rac-(trans-3,4)-4-{4-[2-(2-Amino-phenylcarbamoyl)-vinyl]-phenyl}-1-methyl-pyrrolidine-3-carboxylic acid (4-fluoro-phenyl)-amide] | 1.61 | 650 | 1950 | 390 | 1700 |  |  |  | 
Nc1ccccc1NC(=O)/C=C/c1ccc(C2CN(CCF)CC2C(=O)Nc2ccc(Cl)cc2)cc1 (racemic) [Example 21, rac-(trans-3,4)-4-{4-[2-(2-Amino-phenylcarbamoyl)-vinyl]-phenyl}-1-(2-fluoro-ethyl)-pyrrolidine-3-carboxylic acid (4-chloro-phenyl)-amide] | 1.09 | 910 | 2630 | 420 | 1380 |  |  |  | 
CC(C)(CO)N1CC(C(=O)Nc2ccc(Cl)cc2)C(c2ccc(/C=C/C(=O)Nc3ccccc3N)cc2)C1 (racemic) [Example 26, rac-(trans-3,4)-4-{4-[2-(2-Amino-phenylcarbamoyl)-vinyl]-phenyl}-1-(2-hydroxy-1,1-dimethyl-ethyl)-pyrrolidine-3-carboxylic acid (4-chloro-phenyl)-amide] | 1.38 | 640 | 1530 | 290 | 1040 |  |  |  | 
CC(C)(C)N1CC(C(=O)Nc2ccc(Cl)cc2)C(c2ccc(/C=C/C(=O)Nc3ccccc3N)cc2)C1 (racemic) [Example 36, rac-(trans-3,4)-4-{4-[2-(2-Amino-phenylcarbamoyl)-vinyl]-phenyl}-1-tert-butyl-pyrrolidine-3-carboxylic acid (4-chloro-phenyl)-amide] | 1.75 | 960 | 3290 | 490 | 1530 |  |  |  | 
CN1C[C@@H](C(=O)Nc2ccc(Cl)cc2)[C@H](c2ccc(/C=C/C(=O)Nc3ccccc3N)cc2)C1 [Example 5-2] | 1.73 | 660 | 1980 | 380 | 1130 |  |  |  | 
CN1C[C@@H](C(=O)Nc2ccc(F)cc2)[C@H](c2ccc(/C=C/C(=O)Nc3ccccc3N)cc2)C1 [Example 5-8] | 1.95 | 780 | 3960 | 310 | 1140 |  |  |  | 
Cc1ccc(NC(=O)C2CN(C)CC2c2ccc(/C=C/C(=O)Nc3ccccc3N)cc2)cc1 (stereo not shown) [Example 5-19] | 1.63 | 670 | 1750 | 490 | 1790 |  |  |  | 
CN1CC(C(=O)Nc2ccc(Br)cc2)C(c2ccc(/C=C/C(=O)Nc3ccccc3N)cc2)C1 (stereo not shown) [Example 5-20] | 1.62 | 770 | 1620 | 500 | 1300 |  |  |  | 
Cc1cc(NC(=O)C2CN(C)CC2c2ccc(/C=C/C(=O)Nc3ccccc3N)cc2)ccc1F (stereo not shown) [Example 5-27] | 1.61 | 570 | 1600 | 280 | 1120 |  |  |  | 
Cc1cccc(NC(=O)C2CN(C)CC2c2ccc(/C=C/C(=O)Nc3ccccc3N)cc2)c1 (stereo not shown) [Example 5-28] | 1.70 | 760 | 2010 | 310 | 1730 |  |  |  | 
Cc1cc(NC(=O)C2CN(C)CC2c2ccc(/C=C/C(=O)Nc3ccccc3N)cc2)ccc1Cl (stereo not shown) [Example 5-29] | 1.65 | 640 | 1390 | 320 | 1040 |  |  |  | 
CN1CC(C(=O)Nc2ccc(F)c(Cl)c2)C(c2ccc(/C=C/C(=O)Nc3ccccc3N)cc2)C1 (stereo not shown) [Example 5-30] | 1.97 | 710 | 2340 | 340 | 1560 |  |  |  | 
CN1CC(C(=O)Nc2ccccc2)C(c2ccc(/C=C/C(=O)Nc3ccccc3N)cc2)C1 (stereo not shown) [Example 5-32] | 1.58 | 710 | 2420 | 410 | 2040 |  |  |  | 
COc1ccc(NC(=O)C2CN(C)CC2c2ccc(/C=C/C(=O)Nc3ccccc3N)cc2)cc1 (stereo not shown) [Example 5-33] | 1.49 | 870 | 2210 | 420 | 1620 |  |  |  | 
CN1CC(c2ccc(/C=C/C(=O)Nc3ccccc3N)cc2)C(c2ncc(-c3ccccc3)[nH]2)C1 (stereo not shown) [Example 11-2] | 1.64 | 700 | 1690 | 420 | 1990 |  |  |  | 
CN1CC(c2ccc(/C=C/C(=O)Nc3ccccc3N)cc2)C(c2nc3ccccc3[nH]2)C1 (stereo not shown) [Example 11-3] | 1.62 | 680 | 2200 | 320 | 1620 |  |  |  | 
CN1CC(c2ccc(/C=C/C(=O)Nc3ccccc3N)cc2)C(c2nc3cc(Cl)ccc3[nH]2)C1 (stereo not shown) [Example 11-4] | 1.70 | 640 | 1810 | 370 | 1710 |  |  |  | 
CN1CC(c2ccc(/C=C/C(=O)Nc3ccccc3N)cc2)C(c2nc3cc(F)ccc3[nH]2)C1 (stereo not shown) [Example 11-6] | 1.79 | 920 | 3040 | 350 | 1080 |  |  |  | 
Nc1ccccc1NC(=O)/C=C/c1ccc(C2CN(C3CCOCC3)CC2C(=O)Nc2ccc(Cl)cc2)cc1 (stereo not shown) [Example 16-2] | 1.36 | 750 | 1870 | 410 | 1170 |  |  |  | 
CC(C)N1CC(C(=O)Nc2ccc(F)cc2)C(c2ccc(/C=C/C(=O)Nc3ccccc3N)cc2)C1 (stereo not shown) [Example 16-15] | 1.51 | 720 | 2020 | 290 | 1240 |  |  |  | 
CC(C)N1CC(C(=O)Nc2ccc(Br)cc2)C(c2ccc(/C=C/C(=O)Nc3ccccc3N)cc2)C1 (stereo not shown) [Example 16-16] | 2.03 | 700 | 1620 | 340 | 890 |  |  |  | 
CC(C)N1CC(C(=O)Nc2ccc(Cl)cc2)C(c2ccc(/C=C/C(=O)Nc3ccccc3N)cc2)C1 (stereo not shown) [Example 16-17] | 1.53 | 900 | 2450 | 440 | 1890 |  |  |  | 
Nc1ccccc1NC(=O)/C=C/c1ccc(C2CN(C3CCOCC3)CC2C(=O)Nc2ccc(Cl)cc2)cc1 (stereo not shown) [Example 16-20] | 1.90 |  |  |  |  | 830 | 2960 | 450 | 1230
CCN1CC(C(=O)Nc2ccc(Cl)cc2)C(c2ccc(/C=C/C(=O)Nc3ccccc3N)cc2)C1 (stereo not shown) [Example 21-6] | 1.48 | 800 | 2520 | 400 | 1210 |  |  |  | 
COCCN1CC(C(=O)Nc2ccc(Cl)cc2)C(c2ccc(/C=C/C(=O)Nc3ccccc3N)cc2)C1 (stereo not shown) [Example 21-15] | 1.47 | 1340 | 3320 | 600 | 2950 |  |  |  | 
CC(C)(O)CN1CC(C(=O)Nc2ccc(Cl)cc2)C(c2ccc(/C=C/C(=O)Nc3ccccc3N)cc2)C1 (stereo not shown) [Example 31-8] | 1.48 | 760 | 2090 | 540 | 1380 |  |  |  | 
CC(C)(C)N1CC(C(=O)Nc2ccc(F)cc2)C(c2ccc(/C=C/C(=O)Nc3ccccc3N)cc2)C1 (stereo not shown) [Example 36-5] | 1.70 | 650 | 1840 | 310 | 1080 |  |  |  | 
CN1CC(C(=O)Nc2ccc(F)cc2)C(c2ccc(/C=C/C(=O)Nc3ccccc3N)nc2)C1 (stereo not shown) [Example 73-2] | 1.36 | 1440 | 4520 | 490 | 2010 |  |  |  | 
CN1CC(C(=O)Nc2ccc(F)cc2)C(c2ccc(/C=C/C(=O)Nc3ccccc3N)cc2F)C1 (stereo not shown) [Example 85-4] | 1.84 | 1200 | 3400 | 470 | 2400 |  |  |  | 
